{"source": "paper PMC5554537", "about": "(Frontiers in Pharmacology, 2017)", "key": {"[1]": {"assay": "Metabolite profile in plasma, liver and HT29 tumor after i.p. SN30000", "type": "in vivo, NIH-III mice", "settings": "SN30000 186 mg/kg i.p."}, "HCT116 cells": {"tested_on": "HCT116 cells", "assay": "Antiproliferative potency, 4 h exposure, sulforhodamine B", "type": "cell-based, human", "settings": "for IC50: Homo sapiens, HCT-116, 4 h, HCT116, 4 h exposure, read-out: IC50", "method": "Antiproliferative potency of SN30000 and its major metabolites following 4 h exposure of HCT116 cells under aerobic or anoxic conditions. […]\na HCT116 cells, originally from ATCC, were authenticated by short tandem repeat profiling and confir med mycoplasma-free by PCR/ELISA assay . Cells were passaged in Alpha MEM with 5% foetal bovine serum without antibiotics. In vitro cytotoxicity of SN30000 and metabolites was measured as the inhibition of cell proliferation as described previously (Gu et al., 2009). Briefly, cells were exposed to compounds for 4 h under aerobic (20% O2) or anoxic (Bactron anaerobic chamber) conditions and then grown in an aerobic 5% CO 2 incubator for 5 d before staining with sulforhodamine B. IC50 values were deter mined by interpolation (nonlinear regression to the standard Hill equation) as the drug concentration reducing staining to 50% of controls on the same plate. b Values are mean ± SEM for the numb er of independent experiments shown in parentheses."}, "in vivo [2]": {"assay": "in vivo", "settings": "NIH-III nude, mouse, in vivo, iv", "experimental": "SN30000, M14 and M18 dosing solutions were prepared fresh in normal saline, filtered through 0.45 μm Acrodisc filters (Pall Life Sciences, Port Washington, NY, United States), protected from light in amber vials, and used within 3 h. Doses are expressed as mg of free base equivalent for SN30000 and M14, and free acid in the case of M18. […] Blood samples were collected from mice at various times by cardiac puncture, seconds after cervical dislocation, into ice-cold tubes containing K2EDTA. These were placed on ice immediately after collection and centrifuged (3,000 g, 3 min) within 10 min to harvest plasma. Plasma and tissues were rapidly frozen in liquid nitrogen before storage at -80°C for subsequent bioanalysis.\n(§1) M18 was quantified by absorbance detection with reference to an external standard calibration curve.\nConcentration-time data were analyzed by non-compartmental analysis using Phoenix WinNonlin (ver 6.4, Build 6.4.0768 Pharsight, United States); all AUC values were extrapolated to infinity using the linear trapezoidal rule. […] Model fits were further assessed by visual inspection of the residuals and predicted PK."}, "NIH-III mice": {"tested_on": "NIH-III mice", "assay": "Core body (rectal) temperature and acute clinical signs after dosing", "type": "in vivo", "method": "Supplementary Figure 3. Initial rates of core temperature decrease in (untreated) NIH-III mice post- mortem: co mparison with initial temperature change ante- mortem following treatment with benzotriazine oxides at their MTD. Temperature was measured in rectu m and liver over 15 min. Initial rates of temperature loss (°C/min) were: post- mortem (rectum):\n(rectum) 0.33. The rectal temperature loss following dosing with M14 (135 mg/kg) was 0.6 °C/min (not shown for clarity). The drug-induced changes are redrawn from Fig. 4."}, "in vivo [3]": {"assay": "in vivo", "settings": "NIH-III, mouse, in vivo, ip, 186 mg/kg; for Cmax: i.p. SN30000 186 mg/kg; for half-life: Terminal T1/2, i.p. SN30000 186 mg/kg", "experimental": "as §1\n(§2) Concentration-time data were analyzed by non-compartmental analysis using Phoenix WinNonlin (ver 6.4, Build 6.4.0768 Pharsight, United States); all AUC values were extrapolated to infinity using the linear trapezoidal rule.\n(§3) SN30000, M14 and M13 were quantified by LC-MS/MS using stable isotope internal standards, while M18 was quantified by absorbance detection using external standard calibration curves."}, "in vivo [4]": {"assay": "in vivo", "settings": "NIH-III, mouse, in vivo, ip", "experimental": "SN30000, M14 and M18 dosing solutions were prepared fresh in normal saline, filtered through 0.45 μm Acrodisc filters (Pall Life Sciences, Port Washington, NY, United States), protected from light in amber vials, and used within 3 h. Doses are expressed as mg of free base equivalent for SN30000 and M14, and free acid in the case of M18. […] For evaluation of acute toxicity, mice were observed continuously for 3 h after dosing, and their activity rated on a lethargy score from 0 representing no change in activity to 5 representing animals that were moribund and required culling. For MTD studies, the animals were checked daily for clinical signs of toxicity and body weight change for 2 weeks. In some studies rectal temperature changes after dosing were measured using a BAT-12 digital microprobe thermometer (Physitemp Instruments, Clifton, NJ, United States) at the times specified in the figures. Blood samples were collected from mice at various times by cardiac puncture, seconds after cervical dislocation, into ice-cold tubes containing K2EDTA. These were placed on ice immediately after collection and centrifuged (3,000 g, 3 min) within 10 min to harvest plasma. Plasma and tissues were rapidly frozen in liquid nitrogen before storage at -80°C for subsequent bioanalysis.\n(§4) Concentration-time data were analyzed by non-compartmental analysis using Phoenix WinNonlin (ver 6.4, Build 6.4.0768 Pharsight, United States); all AUC values were extrapolated to infinity using the linear trapezoidal rule. A compartmental model for plasma PK after dosing with SN30000 or M14 was fitted using Phoenix NLME v1.3 with random effects on the metabolite volumes of distribution, and temperature effects based on the observed body temperature at the last measurement time. Temperature effects were added or removed until there was no significant change in the log likelihood. Model fits were further assessed by visual inspection of the residuals and predicted PK."}, "[5]": {"settings": "i.p. SN30000 186 mg/kg", "experimental": "as §1, §2, §3"}, "[6]": {"assay": "Plasma, liver and brain PK after i.p. dosing with M14", "type": "in vivo", "settings": "i.p. M14 135 mg/kg; for half-life: read-out: Terminal T1/2", "experimental": "as §4"}, "[7]": {"settings": "plasma, HT29 tumour-bearing mice"}, "[8]": {"settings": "plasma, non-tumour-bearing mice"}, "[9]": {"settings": "liver, HT29 tumour-bearing mice"}}, "note": "Read-outs that look alike come from different tables or passages of the source.", "data": [{"molecule": "O=C(O)CCc1nc2cc3c(cc2[n+]([O-])n1)CCC3", "note": "[M18]", "values": [{"measurement": "Metabolite/SN30000 peak area, Tumor", "setting": "[1]; HT29 tumor", "result": 1.63}, {"measurement": "Metabolite/SN30000 peak area, Liver", "setting": "[1]; liver", "result": 0.60}, {"measurement": "Metabolite/SN30000 peak area, Plasma", "setting": "[1]; plasma", "result": 1.14}, {"measurement": "IC50", "setting": "HCT116 cells; aerobic (20% O2)", "result": "> 1670", "unit": "µM"}, {"measurement": "IC50", "setting": "HCT116 cells; anoxic", "result": "> 1670", "unit": "µM"}, {"measurement": "Potency relative to SN30000 (fold less potent)", "setting": "HCT116 cells; anoxic HCT116 cultures", "result": "at least 1000 fold"}, {"measurement": "AUC", "setting": "in vivo [2]; 1.86 mg/kg", "result": 0.77, "unit": "µM·h"}, {"measurement": "AUC", "setting": "in vivo [2]; 18.6 mg/kg", "result": 10.1, "unit": "µM·h"}, {"measurement": "half-life", "setting": "in vivo [2]; 18.6 mg/kg", "result": 1.69, "unit": "h"}, {"measurement": "AUC", "setting": "in vivo [2]; 78.3 mg/kg", "result": 60.9, "unit": "µM·h"}, {"measurement": "half-life", "setting": "in vivo [2]; 78.3 mg/kg", "result": 1.25, "unit": "h"}, {"measurement": "Body weight loss", "setting": "NIH-III mice; 36 mg/kg", "result": "no body weight loss was observed"}, {"measurement": "Acute clinical signs and hypothermic response", "setting": "NIH-III mice; 36 mg/kg i.p. or i.v.", "result": "no acute clinical signs or hypothermic response were observed"}, {"measurement": "Cmax", "setting": "in vivo [3]; [7]", "result": "139 ± 6", "unit": "µM"}, {"measurement": "Cmax", "setting": "in vivo [3]; [8]", "result": "119 ± 3", "unit": "µM"}, {"measurement": "half-life", "setting": "in vivo [3]; [9]", "result": 6.53, "unit": "h"}, {"measurement": "half-life", "setting": "in vivo [3]; liver, non-tumour-bearing mice", "result": 3.05, "unit": "h"}, {"measurement": "half-life", "setting": "in vivo [3]; [7]", "result": 16, "unit": "h"}, {"measurement": "half-life", "setting": "in vivo [3]; [8]", "result": 2.88, "unit": "h"}, {"measurement": "AUC", "setting": "in vivo [4]; 1.86 mg/kg", "result": 1.06, "unit": "µM·h"}, {"measurement": "Cmax", "setting": "in vivo [4]; 1.86 mg/kg", "result": 0.65, "unit": "µM"}, {"measurement": "half-life", "setting": "in vivo [4]; 1.86 mg/kg", "result": 1.7, "unit": "h"}, {"measurement": "AUC", "setting": "in vivo [4]; 18.6 mg/kg", "result": 10.8, "unit": "µM·h"}, {"measurement": "Cmax", "setting": "in vivo [4]; 18.6 mg/kg", "result": 5.44, "unit": "µM"}, {"measurement": "half-life", "setting": "in vivo [4]; 18.6 mg/kg", "result": 3.67, "unit": "h"}, {"measurement": "AUC", "setting": "in vivo [4]; 78.3 mg/kg", "result": 51.5, "unit": "µM·h"}, {"measurement": "Cmax", "setting": "in vivo [4]; 78.3 mg/kg", "result": 23.4, "unit": "µM"}, {"measurement": "half-life", "setting": "in vivo [4]; 78.3 mg/kg", "result": 0.592, "unit": "h"}, {"measurement": "AUC", "setting": "in vivo [4]; 92.8 mg/kg", "result": 116, "unit": "µM·h"}, {"measurement": "Cmax", "setting": "in vivo [4]; 92.8 mg/kg", "result": 52.8, "unit": "µM"}, {"measurement": "half-life", "setting": "in vivo [4]; 92.8 mg/kg", "result": 2.42, "unit": "h"}, {"measurement": "AUC", "setting": "in vivo [4]; 186 mg/kg", "result": 204, "unit": "µM·h"}, {"measurement": "Cmax", "setting": "in vivo [4]; 186 mg/kg", "result": 79.5, "unit": "µM"}, {"measurement": "half-life", "setting": "in vivo [4]; 186 mg/kg", "result": 20.2, "unit": "h"}, {"measurement": "Detection in brain", "setting": "[5]", "result": "not detected in brain"}, {"measurement": "Plasma concentration reached", "setting": "[5]; negligible elimination up to 3 h", "result": "> 100", "unit": "µM"}, {"measurement": "AUC 0-3hr", "setting": "[5]; HT29 tumour", "result": 34.8, "unit": "µmol·h/kg"}, {"measurement": "Cmax", "setting": "[5]; HT29 tumour, tumour-bearing mice", "result": 17.6, "unit": "µmol/kg"}, {"measurement": "AUC 0-3hr", "setting": "[5]; [9]", "result": 92, "unit": "µmol·h/kg"}, {"measurement": "Cmax", "setting": "[5]; [9]", "result": "46.1 ± 5.2", "unit": "µmol/kg"}, {"measurement": "AUC 0-3hr", "setting": "[5]; liver, non-tumour-bearing mice", "result": 107, "unit": "µmol·h/kg"}, {"measurement": "Cmax", "setting": "[5]; liver, non-tumour-bearing mice", "result": "53.5 ± 4.0", "unit": "µmol/kg"}, {"measurement": "AUC 0-3hr", "setting": "[5]; [7]", "result": 322, "unit": "µmol·h/kg"}, {"measurement": "AUC 0-3hr", "setting": "[5]; [8]", "result": 349, "unit": "µmol·h/kg"}, {"measurement": "half-life", "setting": "[6]; NIH-III nude, mouse, in vivo, ip, 135 mg/kg, liver", "result": 2.41, "unit": "h"}, {"measurement": "Cmax", "setting": "[6]; NIH-III nude, mouse, in vivo, ip, 135 mg/kg, plasma, read-out: Cmax", "result": "144 ± 5.3", "unit": "µM"}, {"measurement": "half-life", "setting": "[6]; NIH-III nude, mouse, in vivo, ip, 135 mg/kg, plasma", "result": 3.03, "unit": "h"}, {"measurement": "Detection in brain", "setting": "[6]", "result": "undetectable in brain"}, {"measurement": "AUC", "setting": "[6]; liver", "result": 93.3, "unit": "µmol·h/kg"}, {"measurement": "Cmax", "setting": "[6]; liver", "result": "40.0 ± 3.0", "unit": "µmol/kg"}, {"measurement": "AUC", "setting": "[6]; plasma", "result": 349, "unit": "µmol·h/kg"}]}]}
